Entries after “also recorded” stand apart in the source; their conditions may differ. Read-outs that look alike come from different tables or passages of the source. Each block holds one molecule with its values, some of them ahead of it.
Experiments:
α7-5HT3 = target: T1, α7-5HT3 (Homo sapiens, UniProt P36544, M226I/T225I); assay: Agonist potency (EC50), HEK cells expressing chimeric channel; format: cell-based, human α7 nAChR LBD, murine 5HT3 IPD
T1 construct: expressed in transfected cells; host or cells: HEK cells

α7^Y115F,G175K-GlyR = target: T2, α7^Y115F,G175K-GlyR (Homo sapiens, UniProt P36544, G175K/Y115F); assay: Agonist potency at chimeric channel; format: cell-based; conditions: for EC50: Table 6, read-out: Potency, a7GlyR Y115F G175K
T2 construct: expressed in transfected cells

α7^Q79G,G175K-GlyR = target: T3, α7^Q79G,G175K-GlyR (Homo sapiens, UniProt P36544, G175K/Q79G); assay: Agonist potency at chimeric channel; format: cell-based; conditions: Table 6; read-out: Potency, a7GlyR Q79G G175K
T3 construct: expressed in transfected cells

α7^W77F,Q79G,G175K-GlyR = target: T4, α7^W77F,Q79G,G175K-GlyR (Homo sapiens, UniProt P36544, G175K/Q79G/W77F); assay: Agonist potency at chimeric channel; format: cell-based; conditions: Table 6; read-out: Potency, a7GlyR W77F Q79G G175K
T4 construct: expressed in transfected cells

α7^Q79G,Y115F,G175K-GlyR = target: T5, α7^Q79G,Y115F,G175K-GlyR (Homo sapiens, UniProt P36544, G175K/Q79G/Y115F); assay: Agonist potency at chimeric channel; format: cell-based; conditions: Table 6; read-out: Potency, a7Gly Q79G G175K Y115F
T5 construct: expressed in transfected cells

[1] = target: T6, α7GlyR Q79G G175K Y115F R27D E41R (Homo sapiens, UniProt P36544, E41R/G175K/Q79G/R27D/Y115F); assay: Agonist potency at chimeric channel; format: cell-based; conditions: Table 6; read-out: Potency, a7GlyR Q79G G175K Y115F R27D E41R
T6 construct: expressed in transfected cells

α7^Q79A-5HT3 = target: T7, α7^Q79A-5HT3 (Homo sapiens, UniProt P36544, M226I/Q79A/T225I); assay: Agonist potency (EC50), HEK cells expressing chimeric channel; format: cell-based, human α7 nAChR LBD, murine 5HT3 IPD; conditions: HEK cells; Table 1; read-out: Mean EC50, α7^Q79A-5HT3
T7 construct: expressed in transfected cells; host or cells: HEK cells

α7^Q79G-5HT3 = target: T8, α7^Q79G-5HT3 (Homo sapiens, UniProt P36544, M226I/Q79G/T225I); assay: as above; format: cell-based, human α7 nAChR LBD, murine 5HT3 IPD; conditions: HEK cells; Table 1; read-out: Mean EC50, α7^Q79G-5HT3
T8 construct: expressed in transfected cells; host or cells: HEK cells

α7^Q79S-5HT3 = target: T9, α7^Q79S-5HT3 (Homo sapiens, UniProt P36544, M226I/Q79S/T225I); assay: as above; format: cell-based, human α7 nAChR LBD, murine 5HT3 IPD; conditions: HEK cells; Table 1; read-out: Mean EC50, α7^Q79S-5HT3
T9 construct: expressed in transfected cells; host or cells: HEK cells

α7-GlyR = target: T10, α7-GlyR (Homo sapiens, UniProt P36544); assay: as above; format: cell-based; conditions: HEK cells
T10 construct: expressed in transfected cells; host or cells: HEK cells

α7^Q79A-GlyR = target: T11, α7^Q79A-GlyR (Homo sapiens, UniProt P36544, Q79A); assay: as above; format: cell-based; conditions: HEK cells; Table 2; read-out: Mean EC50 and SEM in parentheses, α7^Q79A-GlyR
T11 construct: expressed in transfected cells; host or cells: HEK cells

α7^Q79G-GlyR = target: T12, α7^Q79G-GlyR (Homo sapiens, UniProt P36544, Q79G); assay: as above; format: cell-based; conditions: HEK cells; Table 2; read-out: Mean EC50 and SEM in parentheses, α7^Q79G-GlyR
T12 construct: expressed in transfected cells; host or cells: HEK cells

α7-GlyR^A298G = target: T13, α7-GlyR^A298G (Homo sapiens, UniProt P36544, A298G); assay: as above; format: cell-based; conditions: HEK cells; Table 2; read-out: Mean EC50 and SEM in parentheses, α7-GlyR^A298G
T13 construct: expressed in transfected cells; host or cells: HEK cells

α7^Q79G-GlyR^A298G = target: T14, α7^Q79G-GlyR^A298G (Homo sapiens, UniProt P36544, A298G/Q79G); assay: as above; format: cell-based
T14 construct: expressed in transfected cells; host or cells: HEK cells

α7^Y115F-GlyR G175F = target: T15, α7^Y115F-GlyR G175F (Homo sapiens, UniProt P36544, G175F/Y115F); assay: Agonist potency at chimeric channel (Table 8); format: cell-based; conditions: relative to α7^Y115F-GlyR
T15 construct: expressed in transfected cells

α7^Y115F-GlyR G175R = target: T16, α7^Y115F-GlyR G175R (Homo sapiens, UniProt P36544, G175R/Y115F); assay: Agonist potency at chimeric channel (Table 8); format: cell-based; conditions: relative to α7^Y115F-GlyR
T16 construct: expressed in transfected cells

α7^Y115F-GlyR G175S = target: T17, α7^Y115F-GlyR G175S (Homo sapiens, UniProt P36544, G175S/Y115F); assay: Agonist potency at chimeric channel (Table 8); format: cell-based; conditions: relative to α7^Y115F-GlyR
T17 construct: expressed in transfected cells

α7^Y115F-GlyR G175V = target: T18, α7^Y115F-GlyR G175V (Homo sapiens, UniProt P36544, G175V/Y115F); assay: Agonist potency at chimeric channel (Table 8); format: cell-based; conditions: relative to α7^Y115F-GlyR
T18 construct: expressed in transfected cells

α7^L131G-5HT3 HC = assay: Agonist potency at chimeric channel (Table 9); format: cell-based, human; conditions: α7^L131G-5HT3 HC
α7^Q79S,L131G-GlyR = target: T19, α7^Q79S,L131G-GlyR (Homo sapiens, UniProt P36544, L131G/Q79S); assay: Agonist potency at chimeric channel (Table 9); format: cell-based; conditions: α7^Q79S,L131G-GlyR
T19 construct: expressed in transfected cells

α7^Q79S,L131G,Q139L-GlyR = target: T20, α7^Q79S,L131G,Q139L-GlyR (Homo sapiens, UniProt P36544, L131G/Q139L/Q79S); assay: cell-based; format: cell-based; conditions: α7^Q79S,L131G,Q139L-GlyR
T20 construct: expressed in transfected cells

[2] = tested on: α7GlyR chimeric channels with G175K and A298G mutations; format: cell-based, human; conditions: read-out: Agonist potency
[3] = tested on: mouse cortical neurons transduced with α7^Q79G-GlyR^A298G; assay: Action potential firing of transduced cortical neurons; format: cell-based; conditions: 30 nM; 40 pA current injection; restored after washout
Text: After washout (WASH) of tropisetron, neuron firing is restored.
(§1) AAVs or DNA plasmids containing nucleic acids encoding a α7^Q79G-GlyR^A298G or α7Q79G,Y115F,G175K-GlyR chimeric LGICs were transduced into mouse cortical neurons. […] Neuron activity was silenced by application of low concentration of agonist (FIG. 7 and FIG. 8C).

[4] = tested on: mouse cortical neurons transduced with α7^Q79G,Y115F,G175K-GlyR; assay: as above; format: cell-based; conditions: 100 nM; current injection; restored after washout
Text: FIGS. 8A-8C show activity of agonists on chimeric LGICs with a G175K mutation. FIG. 8A) A graph of EC50s for Q79G G175K LBD mutants against known agonists normalized to the unmodified α7-GlyR chimeric channel (log scale). […] Unmod.: unmodified α7-GlyR chimeric LGIC. FIG. 8C) Action potentials of cortical neurons from a mouse brain transduced with α7^Q79G,Y115F,G175K-GlyR chimeric LGIC. […] After washout (WASH) of tropisetron, neuron firing is restored
as §1

α7^G175K-GlyR = target: T21, α7^G175K-GlyR (Homo sapiens, UniProt P36544, G175K); assay: Agonist potency at chimeric channel; format: cell-based; conditions: Table 6; read-out: Potency, a7GlyR G175K
T21 construct: expressed in transfected cells

[5] = Table 6, read-out: Potency, a7-5HT3
[6] = HEK cells, Table 3, read-out: α7-5HT3 EC50
[7] = Table 3, read-out: α7-GlyR EC50
[8] = HEK cells, Table 3, read-out: α7^Q79G-GlyR^A298G EC50

T2 sequence (P36544 with tags, fused parts or gaps Y115F/G175K): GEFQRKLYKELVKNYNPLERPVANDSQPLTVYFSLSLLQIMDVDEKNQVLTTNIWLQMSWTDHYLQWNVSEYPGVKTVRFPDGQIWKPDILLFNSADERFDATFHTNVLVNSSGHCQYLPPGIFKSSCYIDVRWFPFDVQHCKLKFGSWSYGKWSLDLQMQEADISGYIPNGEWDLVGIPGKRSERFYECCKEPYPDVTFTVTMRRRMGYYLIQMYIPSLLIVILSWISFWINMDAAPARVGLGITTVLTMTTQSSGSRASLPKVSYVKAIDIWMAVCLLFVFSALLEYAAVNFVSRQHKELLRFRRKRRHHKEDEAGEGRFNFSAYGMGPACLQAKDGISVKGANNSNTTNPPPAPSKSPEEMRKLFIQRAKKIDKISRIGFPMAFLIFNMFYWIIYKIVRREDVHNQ
T14 sequence (P36544 with tags, fused parts or gaps Q79G): as the sequence (P36544 with tags, fused parts or gaps Y115F/G175K) above, with Q57G, F93Y, K153G, A276G counted along it
T10 sequence (P36544 with tags, fused parts or gaps): as the sequence (P36544 with tags, fused parts or gaps Y115F/G175K) above, with F93Y, K153G counted along it
T5 sequence (P36544 with tags, fused parts or gaps Q79G/Y115F/G175K): as the sequence (P36544 with tags, fused parts or gaps Y115F/G175K) above, with Q57G counted along it
T1 sequence (P36544 with tags, fused parts or gaps T225I/M226I): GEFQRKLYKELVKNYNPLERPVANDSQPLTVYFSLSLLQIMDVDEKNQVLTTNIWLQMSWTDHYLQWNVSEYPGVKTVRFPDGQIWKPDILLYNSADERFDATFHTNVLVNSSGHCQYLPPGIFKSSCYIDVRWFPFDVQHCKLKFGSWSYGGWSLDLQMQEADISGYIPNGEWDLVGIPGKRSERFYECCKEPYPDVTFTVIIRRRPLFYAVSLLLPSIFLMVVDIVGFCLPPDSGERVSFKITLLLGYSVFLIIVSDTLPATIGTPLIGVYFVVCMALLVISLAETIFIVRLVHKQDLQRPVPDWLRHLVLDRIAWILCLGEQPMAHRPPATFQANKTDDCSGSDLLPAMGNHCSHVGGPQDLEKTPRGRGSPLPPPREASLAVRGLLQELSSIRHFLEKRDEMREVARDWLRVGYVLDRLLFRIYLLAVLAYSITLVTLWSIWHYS
T6 sequence (P36544 with tags, fused parts or gaps R27D/E41R/Q79G/Y115F/G175K): as the sequence (P36544 with tags, fused parts or gaps Y115F/G175K) above, with R5D, E19R, Q57G counted along it
T3 sequence (P36544 with tags, fused parts or gaps Q79G/G175K): as the sequence (P36544 with tags, fused parts or gaps Y115F/G175K) above, with Q57G, F93Y counted along it
T11 sequence (P36544 with tags, fused parts or gaps Q79A): as the sequence (P36544 with tags, fused parts or gaps Y115F/G175K) above, with Q57A, F93Y, K153G counted along it
T17 sequence (P36544 with tags, fused parts or gaps Y115F/G175S): as the sequence (P36544 with tags, fused parts or gaps Y115F/G175K) above, with K153S counted along it
T12 sequence (P36544 with tags, fused parts or gaps Q79G): as the sequence (P36544 with tags, fused parts or gaps Y115F/G175K) above, with Q57G, F93Y, K153G counted along it
T8 sequence (P36544 with tags, fused parts or gaps Q79G/T225I/M226I): as the sequence (P36544 with tags, fused parts or gaps T225I/M226I) above, with Q57G counted along it
T16 sequence (P36544 with tags, fused parts or gaps Y115F/G175R): as the sequence (P36544 with tags, fused parts or gaps Y115F/G175K) above, with K153R counted along it
T21 sequence (P36544 with tags, fused parts or gaps G175K): as the sequence (P36544 with tags, fused parts or gaps Y115F/G175K) above, with F93Y counted along it
T4 sequence (P36544 with tags, fused parts or gaps W77F/Q79G/G175K): as the sequence (P36544 with tags, fused parts or gaps Y115F/G175K) above, with W55F, Q57G, F93Y counted along it
T15 sequence (P36544 with tags, fused parts or gaps Y115F/G175F): as the sequence (P36544 with tags, fused parts or gaps Y115F/G175K) above, with K153F counted along it
T9 sequence (P36544 with tags, fused parts or gaps Q79S/T225I/M226I): as the sequence (P36544 with tags, fused parts or gaps T225I/M226I) above, with Q57S counted along it
T19 sequence (P36544 with tags, fused parts or gaps Q79S/L131G): as the sequence (P36544 with tags, fused parts or gaps Y115F/G175K) above, with Q57S, F93Y, L109G, K153G counted along it
T13 sequence (P36544 with tags, fused parts or gaps, stated change not applied): as the sequence (P36544 with tags, fused parts or gaps Y115F/G175K) above, with F93Y, K153G, A276G counted along it
T18 sequence (P36544 with tags, fused parts or gaps Y115F/G175V): as the sequence (P36544 with tags, fused parts or gaps Y115F/G175K) above, with K153V counted along it
T20 sequence (P36544 with tags, fused parts or gaps Q79S/L131G/Q139L): as the sequence (P36544 with tags, fused parts or gaps Y115F/G175K) above, with Q57S, F93Y, L109G, Q117L, K153G counted along it
T7 sequence (P36544 with tags, fused parts or gaps Q79A/T225I/M226I): as the sequence (P36544 with tags, fused parts or gaps T225I/M226I) above, with Q57A counted along it

SMILES: Fc1ccc(Cl)cc1NC(=S)N[C@H]1CN2CCC1CC2 [Compound 703]
EC50 (α7-5HT3; [5]): > 100000 nM

SMILES: COc1ccc2[nH]cc(C(=O)O[C@H]3C[C@H]4CC[C@@H](C3)N4C)c2c1 [Compound 736]
EC50 (α7-5HT3; [5]): 830 nM
EC50 (α7^Y115F,G175K-GlyR): 570 nM
EC50 (α7^Q79G,G175K-GlyR): 44 nM
EC50 (α7^W77F,Q79G,G175K-GlyR): 60 nM
EC50 (α7^Q79G,Y115F,G175K-GlyR): 78 nM
EC50 [1]: 78 nM

EC50 (α7-5HT3; [5]): > 100000 nM
EC50 (α7^Q79G,Y115F,G175K-GlyR): > 100000 nM
SMILES: CN(C)CCCN1c2ccccc2Sc2ccccc21 [Promazine]

SMILES: Cn1cc(C(=O)C(=O)NC2CN3CCC2CC3)c2ccccc21 (centres unmarked) [RS56812]
EC50 (α7-5HT3; HEK cells, Table 1, read-out: Mean EC50, α7-5HT3): 10000 nM
EC50 (α7^Q79A-5HT3): 6800 nM
EC50 (α7^Q79G-5HT3): 1400 nM
EC50 (α7^Q79S-5HT3): 5700 nM
EC50 (α7-GlyR; Table 2, read-out: Mean EC50 and SEM in parentheses, α7 GlyR): 6500 nM
EC50 (α7^Q79A-GlyR): 3500 nM
EC50 (α7^Q79G-GlyR): 2000 nM
EC50 (α7-GlyR^A298G): 2300 nM
EC50 (α7^Q79G-GlyR^A298G; HEK cells, Table 2, read-out: Mean EC50 and SEM in parentheses, α7^Q79G-GlyR^A298G): 610 nM

SMILES: COc1ccc(OC)c(C(=O)NC2C3CCN(CC3)C2Cc2cccnc2)c1 (mixture of isomers) [Compound 0434]
EC50 (α7-5HT3; [6]): > 10000 nM
EC50 (α7-GlyR; [7]): > 10000 nM
EC50 (α7^Q79G-GlyR^A298G; [8]): 190 nM

SMILES: CN1C2CCC1CC(NC(=S)c1c[nH]c3ccccc13)C2 (centres unmarked) [Compound 0542]
EC50 (α7-5HT3; [6]): 3800 nM
EC50 (α7^Q79G-GlyR^A298G; [8]): 72 nM

SMILES: CN1[C@@H]2CC[C@H]1C[C@@H](OC(=O)c1c[nH]c3ccccc13)C2 [Tropisetron]
potency enhancement at α7^Y115F-GlyR by additional mutation G175K (α7^Y115F,G175K-GlyR; relative to α7^Y115F-GlyR): 5.6 fold
potency enhancement at α7^Y115F-GlyR by additional mutation G175F (α7^Y115F-GlyR G175F): 2 fold
potency enhancement at α7^Y115F-GlyR by additional mutation G175R (α7^Y115F-GlyR G175R): 5.8 fold
potency enhancement at α7^Y115F-GlyR by additional mutation G175S (α7^Y115F-GlyR G175S): 9.3 fold
potency enhancement at α7^Y115F-GlyR by additional mutation G175V (α7^Y115F-GlyR G175V): 16.7 fold
potency enhancement (α7^L131G-5HT3 HC): 2.3 fold
improved potency over α7-GlyR (α7^Q79S,L131G-GlyR): 15 fold
improved potency over α7-GlyR (α7^Q79S,L131G,Q139L-GlyR): 3 fold
EC50 ([2]; α7GlyR Q79G A298G G175K Y115F): 2.8 nM
EC50 ([2]; α7GlyR Q79G G175K A298G): 0.6 nM
suppression of action potential firing [3]: silenced; also recorded: potently suppressed
suppression of action potential firing [4]: silenced; also recorded: potently suppressed

SMILES: O=C(Nc1ccccc1)NC1CN2CCC1CC2 (centres unmarked) [Compound 0353]
EC50 (α7-5HT3; [6]): 650 nM
EC50 (α7-GlyR; [7]): 270 nM
EC50 (α7^Q79G-GlyR^A298G; [8]): 10 nM

SMILES: Cc1ccc(Cl)cc1NC(=S)N[C@H]1CN2CCC1CC2 [Compound 705]
EC50 (α7-5HT3; [5]): > 100000 nM
EC50 (α7^Y115F,G175K-GlyR): > 10000 nM

SMILES: CC(=O)OCC[N+](C)(C)C [Acetylcholine]
reduced ACh responsiveness (α7^L131G-5HT3 HC; reduction): 5 fold

SMILES: FC(F)(F)Oc1ccc(NC(=S)N[C@H]2CN3CCC2CC3)cc1 [Compound 684]
EC50 (α7-5HT3; [5]): > 100000 nM
EC50 (α7^G175K-GlyR): 230 nM
EC50 (α7^Q79G,G175K-GlyR): 78 nM
EC50 (α7^Q79G,Y115F,G175K-GlyR): 790 nM
EC50 [1]: 400 nM

SMILES: Fc1c(Cl)cccc1NC(=S)N[C@H]1CN2CCC1CC2 [Compound 701]
EC50 (α7-5HT3; [5]): > 100000 nM

SMILES: CN1[C@@H]2CCC[C@H]1C[C@@H](NC(=S)c1ccc(Cl)cc1)C2 [Compound 0536]
EC50 (α7-5HT3; [6]): > 33000 nM
EC50 (α7-GlyR; [7]): > 100000 nM
EC50 (α7^Q79G-GlyR^A298G): 9100 nM
